Data: patent US7390660B2, “Methods for growing mammalian cells in vitro” (Hoffman-La Roche Inc., priority 2002, dated 2008)
Where “and” joins values, the source holds several entries; their conditions need not be identical. Identical values can stand only once.

Experiments:
[1] = system: myeloma cell line (Sp2/0); assay: Fermentation in dialysis mode, 1000 L production bioreactor, with addition of citrate; type: cell-based
Description: The cells of a myeloma cell line (Sp2/0) were thawed and expanded up to 2 L in spinner flasks over a period of approximately 14 days for the inoculation of a 10 L bioreactor. After 2 to 4 days the cells were split or transferred to a 100 L bioreactor and further cultivated for 2 to 4 days. The 100 L bioreactor served as inoculum for the 1000 L production bioreactor. For each inoculum step a starting cell density of about 0.2 to about 0.4×10^6 viable cells per mL was used.
The production bioreactor ran in a dialysis mode. The bioreactor was a stirred tank reactor with a working volume of about 900 to about 1300 L. Aeration was performed by sparging. The following process parameters were controlled: pH, temperature, pO^2, pressure and agitation rate. The bioreactor was equipped for dialysis mode with hollow fibre cartridges. The cartridges were connected to an external loop with a dialysis medium reservoir. The dialysis of the culture was started 2 to 4 days after inoculation. During fermentation the reservoir was repeatedly filled up with fresh dialysis medium. Some medium components were fed as separate sterile solutions to the bioreactor. These comprise glucose, amino acids, vitamins, and trace elements.
Fermentation was terminated after a maximum of 16 days.
The citrate was added to the fermentation medium and to the dialysis medium.

[2] = system: myeloma cell line (Sp2/0); assay: Fermentation in fed batch mode, 10 L bioreactor, with addition of citrate; type: cell-based; conditions: 2.4 mmol/L citrate, 10 L scale, single runs and mean
Experimental: The cells of a myeloma cell line were thawed (Sp2/0) and expanded up to 2 L in spinner flasks for the inoculation of a 10 L bioreactor. The production bioreactor ran in a fed batch mode. The bioreactor was a stirred tank reactor with a working volume of from about 9 to about 13 L. Aeration was performed by sparging. The following process parameters were controlled: pH, temperature, pO2, pressure and agitation rate. Feeding of the culture was started 2 to 4 days after inoculation. Components including glucose, amino acids, vitamins, and trace elements were fed as separate sterile solutions to the bioreactor. Fermentation was terminated after maximum of 10 days.

`O=C(O)CC(O)(CC(=O)O)C(=O)O` [Citrate] was tested, and the “Amount of alkali required to adjust a constant pH value reduced to, % of the control” value [1] was “about 34%”, the “Reduction of the specific consumption rate for glucose” value ([1]; 1000 L scale, versus runs without citrate, printed 'reduced ... about 44%') was “about 44%” and the “Specific consumption rate of glucose” value [2] was 443 μg/10^6 cells x day and 715 μg/10^6 cells x day and 451 μg/10^6 cells x day. For the same compound, the “Specific production rate of lactate” value [2] was 230 μg/10^6 cells x day and 392 μg/10^6 cells x day and 304 μg/10^6 cells x day and the “Specific consumption rate of glucose” value ([2]; mean) was 536 μg/10^6 cells x day.
